Legend:
ileal villi = test: Ischemic injury and Trypan Blue exclusion in ileal villi; assay type: cell-based, rat; settings: 5 min of 100 nM compound A; 30 min 100% N2; without calcimimetic greater than 60% uptake
Experimental: Individual villi were transferred to the stage of an inverted microscope where they were perfused with 37° C. HEPES Ringer solution that was bubbled with 100% O2. After the 5 minute equilibration period villi were exposed to a HEPES Ringer solution that had been bubbled with 100% N2. In one series Trypan Blue a non membrane permeant dye used for assessment of membrane integrity was added to the bath (0.1 mM Trypan Blue concentration dissolved directly into the bath solution, either 100% O2 or 100% N2). Images were then recorded at sequential time points using DIC optics at 60× Magnification using a Cooled CCD camera and Metafluor Image acquisition and analysis software. Final data was acquired at 30 min from start of perfusion for all groups. The number of Trypan blue positive cells were counted and a number recorded for each villi under each condition. After 30 minutes of exposure to each experimental solution the number of Trypan Blue positive cells was recorded from a blinded observer. The final number of positive cells for each villi was recorded. The data for each villi with a minimum of 7 cells per villi were then pooled and recorded. A numeric mean was then given for the summation of all the cellular data from each villi and from each animal. For the studies presented there were 7 cells per villi, 5 villi per animal and 5 animals in each group. […]

colonic crypts = test: Ischemic injury (100% N2) and intracellular calcium in colonic crypts; assay type: cell-based; settings: 5 min prepulse with 100 nM compound A; rat colonic crypts
isolated ileal villi = test: Ischemic injury (100% N2) and intracellular calcium (FLUO-4) in isolated ileal villi; assay type: cell-based; settings: 5 min exposure to 100 nM compound A; rat ileal villi; without calcimimetic sustained increase greater than 200% of initial value
Experimental: Male (Casr^+/+;Gcm2^−/−) or CaSR knockout (Casr^−/−;Gcm2^−/−) mice weighing 22-27 grams (upper panel) or male Sprague-Dawley rats weighing 220-275 grams (lower panel) were allowed free access to water and food prior to experimentation. The animals were exposed to an overdose of isofluorane and the ileum was removed. The ileum was then cut into 4 cm long sections and each section was placed in EDTA (20 mM) to isolate individual villi for 20 minutes at 37° C. After this digestion period the villi were placed in a HEPES-Ringer Solution that was bubbled with 100% O2 and were kept in this solution at 4° C. until use. All mice were generated at Yale University from a breeding colony. Male Sprague-Dawley rats were purchased from Charles River Laboratories Inc. (Wilmington, Mass.). […]
Following isolation individual villi were placed on coverslips and loaded with the calcium indicator dye FLUO4-AM (10 μM) (Invitrogen, Oregon USA) for 15 minutes. […] Images were recorded for 20-30 minutes using DIC optics at 60× Magnification with a Cooled CCD camera and Metamorph Image acquisition and analysis software.
The increase in intracellular Ca^2+ is plotted as arbitrary fluorescent units (AFU) with higher numbers of AFU representing an increase in intracellular Ca^2+. The data for each villi with a minimum of 7 cells per villi were then pooled and recorded. […]

[1] = Plasma level of calcimimetic in cutaneous wound study; assay type: in vivo, mouse; settings: Compound B 3 mg/kg daily, female balb/c mice, over the course of the study
serum total calcium = test: Serum total calcium in cutaneous wound study; assay type: in vivo, mouse; settings: Compound B 3 mg/kg daily, female balb/c mice; vehicle 10.2-10.9 mg/dL
[2] = test system: wound injury RNA biomarkers (wound tissue); test: Wound injury RNA biomarkers by quantitative PCR in full-thickness cutaneous wound injury model; assay type: in vivo, mouse; settings: 3 mg/kg, drug over vehicle, n=5
Experimental: See Zoog S J et al. Cytometry A. (2009) March; 75(3): 189-98. The impact of calcimimetic treatment on gene mRNA biomarkers was assessed by quantitative PCR. For wound injury RNA biomarker exploration, female balb/c mice were randomly divided and treated with Compound B (3 mg/kg, n=5) or vehicle (20% Captisol in water, n=5) the day before cutaneous wounding and each subsequent day after until the termination of the studies. All mice received a 3 mm diameter full-thickness punch wound on day zero. On day 1 and day 3 post-injury, a 6 mm diameter skin biopsy was made over the original 3 mm wound and the wound tissue collected for RNA analysis. RNA was isolated using the Trizol reagent (Invitrogen) following manufacturer's instruction. 10 ng of total RNA was added to a single well at the final volume of 10 ul in 1×ABI (Applied Biosystems) Taqman qRT-PCR mixture and run on an ABI 7900 HT Real Time PCR system. For data analysis, the gene expression profile of each sample was first determined based on a control gene, Hprt1, using ABI SDS2.1 software. The signal of each sample was normalized further with Actb, Gapdh, Hprt1, and Rpl27. The biomarkers of wound injury, inflammation and repair that were dynamically affected by Compound B on day 1 and day 3 compared to vehicle control are shown in Table 2. Calcimimetic Compound B affected inflammatory genes, and genes involved in remodeling and repair. Specifically, key inflammatory cytokines such as IL-1a and TNF that may promote cell death were affected by Compound B. Genes involved in inflammation and repair that were affected included: tryptase, TIMP-3, and MMP13. Genes involved in promoting cell survival included: VEGFa, TGFb1, eNOS, and PDGFRb. Immune cell related genes included: M-CSF, TLR-7 and CD3. Other relevant genes included: ITGA3 and PRG-1. […] Table 2 represents the fold increase of drug-induced quantitative change in the gene over vehicle as determined by PCR analysis (n=5 in each drug or vehicle treated cohort).

COc1cccc([C@@H](C)NCCCc2ccccc2Cl)c1 [Compound A, 3-(2-chlorophenyl)-N-((1R)-1-(3-(methyloxy)phenyl)ethyl)-1-propanamine]
cellular uptake of Trypan Blue (ileal villi): prevented uptake of Trypan Blue
change in intracellular calcium following exposure to 100% N2 (colonic crypts): no increase in calcium
change in intracellular calcium following exposure to 100% N2 (isolated ileal villi): no increase in calcium

COc1ccc(CNC(C)c2ccccc2)cc1-c1ccc(C(F)(F)F)cc1 (centres unmarked) [Compound B, N-((6-(methyloxy)-4′-(trifluoromethyl)-1,1′-biphenyl-3-yl)methyl)-1-phenylethanamine]
average plasma level [1]: 20 to 36 ng/mL
serum total calcium level (serum total calcium): 7.21 to 7.9 mg/dL
Fold Increase (C/V) CD3 RNA ([2]; Day 1 post-injury): 2.90 fold
Fold Increase (C/V) IL-1a RNA ([2]; Day 1 post-injury): 1.78 fold
Fold Increase (C/V) ITGA3 RNA ([2]; Day 1 post-injury): 4.89 fold
Fold Increase (C/V) M-CSF RNA ([2]; Day 1 post-injury): 2.13 fold
Fold Increase (C/V) MMP13 RNA ([2]; Day 1 post-injury): 2.78 fold
Fold Increase (C/V) PDGFRb(CD140) RNA ([2]; Day 1 post-injury): 0.67 fold
Fold Increase (C/V) PRG-1 RNA ([2]; Day 1 post-injury): 3.03 fold
Fold Increase (C/V) TGFB1 RNA ([2]; Day 1 post-injury): 4.17 fold
Fold Increase (C/V) TIMP-3 RNA ([2]; Day 1 post-injury): 4.48 fold
Fold Increase (C/V) TLR-7 RNA ([2]; Day 1 post-injury): 2.20 fold
Fold Increase (C/V) TNFR(p75) RNA ([2]; Day 1 post-injury): 1.62 fold
Fold Increase (C/V) TNFalpha RNA ([2]; Day 1 post-injury): 1.26 fold
Fold Increase (C/V) Tryptase b2 (MCP-6) RNA ([2]; Day 1 post-injury): 1.02 fold
Fold Increase (C/V) VEGFa RNA ([2]; Day 1 post-injury): 1.53 fold
Fold Increase (C/V) eNOS RNA ([2]; Day 1 post-injury): 5.41 fold
Fold Increase (C/V) CD3 RNA ([2]; Day 3 post-injury): 0.88 fold
Fold Increase (C/V) IL-1a RNA ([2]; Day 3 post-injury): 3.44 fold
Fold Increase (C/V) ITGA3 RNA ([2]; Day 3 post-injury): 1.78 fold
Fold Increase (C/V) M-CSF RNA ([2]; Day 3 post-injury): 2.13 fold
Fold Increase (C/V) MMP13 RNA ([2]; Day 3 post-injury): 1.90 fold
Fold Increase (C/V) PDGFRb(CD140) RNA ([2]; Day 3 post-injury): 1.42 fold
Fold Increase (C/V) PRG-1 RNA ([2]; Day 3 post-injury): 4.12 fold
Fold Increase (C/V) TGFB1 RNA ([2]; Day 3 post-injury): 0.92 fold
Fold Increase (C/V) TIMP-3 RNA ([2]; Day 3 post-injury): 1.62 fold
Fold Increase (C/V) TLR-7 RNA ([2]; Day 3 post-injury): 2.39 fold
Fold Increase (C/V) TNFR(p75) RNA ([2]; Day 3 post-injury): 1.62 fold
Fold Increase (C/V) TNFalpha RNA ([2]; Day 3 post-injury): 3.83 fold
Fold Increase (C/V) Tryptase b2 (MCP-6) RNA ([2]; Day 3 post-injury): 0.95 fold
Fold Increase (C/V) VEGFa RNA ([2]; Day 3 post-injury): 0.61 fold
Fold Increase (C/V) eNOS RNA ([2]; Day 3 post-injury): 0.46 fold

Reference: patent US8609655B2, “Calcimimetic compound for use in the treatment of epithelial injury” (Amgen Inc., priority 2008, dated 2013)
